Test results as given in patent US6884776B1, “Antimicrobial peptides derived from ubiquicidine” (priority 1997, dated 2005).
Where no end group is shown, it is not given here.

Experiments:
[1] = localization of 99mTc-labelled peptides with γ-camera in mice infected with Staphylococcus aureus or with sterile inflammations; type: in vivo; details: target to non-target ratios, FIG. 13
Procedure: Mice were infected intramuscularly with about 10^6 Staphylococcus aureus bacteria (ATCC 25923) and subsequently injected intraperitoneally with 25 μg ^99mTc-peptide. Mice were also injected intramuscularly with about 1×10^8 heat-killed (1 hour, 100° C.)S. aureus, 1 μg endotoxin or 100 ng phorbol myristate acetate (PMA) in order to cause sterile inflammations. At different points in time after injection of the peptide the radioactivity was measured in the circulation (heart), determined organs (liver, kidney, bladder and spleen) and in both thigh muscles using a γ-camera.
(§1) Mice were infected in the right thigh muscle with Klebsiella pneumoniae and 25 μg ^99mTc-labelled ubiquicidine (1-18) or ubiquicidine (18-35) was subsequently injected intraperitoneally. At different points in time after injection of the peptide the amount of activity in the right (test) and left (control) thigh muscle of the mouse was measured using a γ-camera. The results are shown in FIG. 12 as a ratio of the values in the right thigh muscle and the left thigh muscle, i.e. “target to non-target ratio”. For the purpose of comparison the results for human defensin and IgG are also shown. The target to non-target ratios for infections and sterile inflammations were also compared (FIG. 13).

[2] = parameters: species or system mice; details: mouse, in vivo
Procedure: Reference is made to FIG. 11 for a schematic view of the experimental infection and treatment of the mice. In summary, mice-were infected intramuscularly in the right thigh muscle with about 10^6 bacteria and after 5 minutes injected intraperitoneally with about 25 μg (labelled) peptide. At different points in time after injection of the peptide the animals were killed and the right thigh muscle was removed, homogenized, and finally the number of bacteria in the homogenate was determined using microbiological plate techniques, or accumulation of the labelled peptide was determined by means of a γ-camera. This test involved animals which were normal and immunocompromised (injection with cyclophosphamide, “total body” radiation).
as §1

[3] = in vivo; cited from earlier work
micro-organisms = experiment: growth-killing test / in vitro antimicrobial action (IC 99%); type: cell-based
Excerpt: Peptide fragments derived from ubiquicidine comprise a preferably continuous series of at least 3, preferably at least 8 amino acids from the amino acid sequence of ubiquicidine as shown in FIG. 1. For an average skilled person it is simple to ascertain whether a peptide fragment with a series of preferably continuous amino acids chosen from the amino acid sequence of ubiquicidine does actually have antimicrobial activity and thus meets the requirements of the invention. A simple standard test for determining antimicrobial activity is for instance the universally known growth-killing test, i.e. determining of the concentration of an antimicrobial agent which kills 99% of the micro-organisms (IC 99%). Designated by “peptide (fragments)” in this application are therefore all amino acid chains which are smaller than the ubiquicidine itself, but the amino acid sequence of which is to be found, preferably continuously, in the ubiquicidine. The length of such peptide (fragments) can vary from 3 to 58 amino acids, wherein possible extra amino acids added as modification are not included.
(§2) Different techniques were used to test for the antimicrobial activity of ubiquicidine and peptides derived therefrom.

Klebsiella pneumoniae = experiment: growth-killing curve determination, 60 minutes at 37° C., CFU; type: cell-based
Procedure: as §2
(§3) In the control incubations the bacteria multiplied a number of times (not shown).
(§4) Peptides were prepared using an Abimed AMS multiple peptide synthesizer and a fixed phase (tentagel AC, a polymer of polyethylene glycol spacer linked to a polystyrene matrix) (de Koster et al. (1995) J. Immunol. Methods 187:179-188). After completion of the synthesis the peptide was released from the fixed phase using a trifluoroacetic acid water(19:1) mixture and the peptides were subsequently precipitated with an ether pentane(1:1) mixture at […]. After centrifugation the obtained pep-tides were dried at 40° C. for 15 minutes. The peptides were subsequently dissolved in 10% acetic acid and concentrated by means of vacuum centrifugation. The purity of the peptides was determined using HPLC. The antimicrobial activity of these peptide fragments was determined as described in Example 1 under 2.3.

Staphylococcus aureus = experiment: as above; type: cell-based
Procedure: as §2, §3, §4

99mTc-labelled ubiquicidine 18-35: MAG3-derived ubiquicidine (18-35) labelled with the emitter 99mTc (hybrid molecule) (KVAKQEKKKKKTGRAKRR; also: MAG3 chelator conjugated, site not given here, 99mTc label; UniProt P62861 92-109, looked up, fragment)
accumulation in infection versus sterile inflammations [1]: in a nidus but not in inflammations | time to maximum accumulation compared with IgG [2]: much sooner than ^99Tc-IgG

KVAKQEKKKKKTGRAKRR [ubiquicidine (18-35)]
accumulation in the infected thigh muscle [2]: accumulate rapidly

KVHGSLARAGKVRGQTPK [ubiquicidine (1-18)]
accumulation in the infected thigh muscle [2]: accumulate rapidly

[67Ga] [gallium 67]
time needed for accumulation [3]: at least 24 hours

ubiquicidine (29-41): synthetic peptide fragment of ubiquicidine, amino acids 29-41, sequence in FIG. 1 (TGRAKRRMQYNRR; Small ribosomal subunit protein eS30; UniProt P62861 103-115, looked up, fragment)
IC 99% (concentration which kills 99% of the micro-organisms) (micro-organisms): around 1 μM | antimicrobial activity of peptide fragments (Klebsiella pneumoniae): demonstrated antimicrobial activity | antimicrobial activity of peptide fragments (Staphylococcus aureus): demonstrated antimicrobial activity

^99Tc-ubiquicidine (1-18): ubiquicidine (1-18) labelled with technetium 99m (KVHGSLARAGKVRGQTPK; also: labelled with 99mTc, site not given here; UniProt P62861 75-92, looked up, fragment)
time to maximum accumulation compared with IgG [2]: much sooner than ^99Tc-IgG
